Data from patent US4438029A, “Synthetic peptides” (Research Corporation, priority 1979, dated 1984).
Ends that are not written are not given here.

Tested on: guinea pig ileum strips
Test: Contraction of guinea pig ileum strips in Tyrode's solution
Assay type: cell-based
Settings: full contraction; for Activity (amount of peptide per 10 ml of solution to contract fully guinea pig ileum strips): Table I, guinea pig ileum strips with Tyrode's solution; for Ileum Activity (amount of peptide per 10 ml of Tyrode's solution to fully contract a guinea pig ileum strip): Table II

## ASHLGLAR [No. 5, L-Alanyl-L-seryl-L-histidyl-L-leucyl-glycyl-L-leucyl-L-alanyl-L-arginine]
  Activity (amount of peptide per 10 ml of solution to contract fully guinea pig ileum strips): 5 to 8 nmol

## Ac-AAALGLAR [CH3 CO--Ala-Ala-Ala-Leu-Gly-Leu-Ala-Arg]
  Ileum Activity (amount of peptide per 10 ml of Tyrode's solution to fully contract a guinea pig ileum strip): 7 to 13 nmol

## Ac-ALGLAR [CH3 CO--Ala-Leu-Gly-Leu-Ala-Arg]
  Ileum Activity (amount of peptide per 10 ml of Tyrode's solution to fully contract a guinea pig ileum strip): 19 to 38 nmol

## Ac-ASHLGLAR [No. 6, CH3 CO--Ala-Ser-His-Leu-Gly-Leu-Ala-Arg]
  Activity (amount of peptide per 10 ml of solution to contract fully guinea pig ileum strips): 8 to 12 nmol

## Ac-HLGLAR [CH3 CO--His-Leu-Gly-Leu-Ala-Arg]
  Ileum Activity (amount of peptide per 10 ml of Tyrode's solution to fully contract a guinea pig ileum strip): 8 to 17 nmol

## Ac-LGLAR [CH3 CO--Leu-Gly-Leu-Ala-Arg]
  Ileum Activity (amount of peptide per 10 ml of Tyrode's solution to fully contract a guinea pig ileum strip): 36 to 45 nmol
